Laboratory results published in ChEMBL document CHEMBL1147505, “Efficient and chemoselective N-acylation of 10-amino-7-ethyl camptothecin with poly(ethylene glycol)” (2004).
Residues, ends and D or L forms follow the SMILES beside them. *: point of attachment. X2 = CCc1c2c(nc3ccc(N*)cc13)-c1cc3c(c(=O)n1C2)COC(=O)[C@]3(O)CC; X1 = COCCOC(=O)*

Legend:
Mus musculus [1] = species: Mus musculus; assay: Survival rate was determined as the ratio of mean survival days of treated group of mice to that of control group; format: functional
Mus musculus [2] = assay: Survival time of CDF1 mice inoculated with leukemia P388 cells determined after 40 days of intravenous administration of compound at 20 mg/kg on days 1, 5 and 9; format: functional

Compound	T/C (Mus musculus [1])	Survival time (Mus musculus [2])
CCc1c2c(nc3ccc(NC(=O)CNC(=O)[C@H](Cc4ccccc4)NC(=O)[C@H](CC(C)C)NC(=O)CNC(=O)OCCOC)cc13)-c1cc3c(c(=O)n1C2)COC(=O)[C@]3(O)CC (X1-GLFG-X2)	170%	13 days
COc1cccc2c1C(=O)c1c(O)c3c(c(O)c1C2=O)C[C@@](O)(C(=O)CO)C[C@@H]3O[C@H]1C[C@H](N)[C@H](O)[C@H](C)O1 [DOXORUBICIN]	>183%	>14 days
CCc1c2c(nc3ccc(OC(=O)N4CCC(N5CCCCC5)CC4)cc13)-c1cc3c(c(=O)n1C2)COC(=O)[C@]3(O)CC [IRINOTECAN]	172%	–
